Usually inhibition stands for the relative decrease from the control value, in per cent. As a reminder, the Ki is the dissociation constant of the complex between target and ligand, obtained from inhibition or displacement.

Where a name gives a salt, the structure may show the parent alone. Read-outs that look alike come from different tables or passages of the source.

One experiment has as its target human μ-opiate receptor (Homo sapiens, UniProt P35372). Briefly: Affinity for the human μ-opiate receptor ([3H]-naloxone displacement, SPA, CHO-K1 membrane preparation). In kind it is binding. The conditions noted are these: for inhibition at 1 µM: read-out: μ-Opioid receptor, % inhibition [1 μM]; for Ki: read-out: μ-Opioid receptor, Ki.
The target in another experiment is T1, Serotonin (5HT) reuptake (Rattus norvegicus, UniProt P31652).
T1 construct: synaptosomes are freshly isolated from areas of rat brain; from tissue; host or cells: rat brain synaptosomes (P2 fraction)
T1 sequence (P31652 whole entry): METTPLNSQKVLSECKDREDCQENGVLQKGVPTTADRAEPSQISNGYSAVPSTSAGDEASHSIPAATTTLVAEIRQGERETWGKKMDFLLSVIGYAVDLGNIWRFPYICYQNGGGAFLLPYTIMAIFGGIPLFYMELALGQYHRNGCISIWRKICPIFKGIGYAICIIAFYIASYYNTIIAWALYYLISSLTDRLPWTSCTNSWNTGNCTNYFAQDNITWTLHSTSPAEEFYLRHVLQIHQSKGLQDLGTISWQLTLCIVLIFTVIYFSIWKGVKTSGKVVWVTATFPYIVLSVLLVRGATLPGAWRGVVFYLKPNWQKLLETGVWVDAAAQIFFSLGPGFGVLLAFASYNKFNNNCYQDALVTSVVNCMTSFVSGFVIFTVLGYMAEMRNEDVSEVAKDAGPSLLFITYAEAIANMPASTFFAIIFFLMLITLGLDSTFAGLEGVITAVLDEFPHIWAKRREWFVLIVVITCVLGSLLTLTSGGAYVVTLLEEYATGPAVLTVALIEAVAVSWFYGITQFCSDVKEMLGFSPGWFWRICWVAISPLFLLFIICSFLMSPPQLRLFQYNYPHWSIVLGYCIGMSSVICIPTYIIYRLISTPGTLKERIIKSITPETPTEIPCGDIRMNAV
Put plainly: Serotonin (5HT) reuptake inhibition in rat brain synaptosomes (P2 fraction). In kind it is biochemical. The settings on record: for inhibition at 10 µM: read-out: Serotonin reuptake, % inhibition [10 μM]. From the text: (§1) Noradrenaline (NA) and Serotonin (5HT) Reuptake Inhibition
(§2) In order to be able to carry out these studies in vitro, synaptosomes are freshly isolated from areas of rat brain. A so-called “P2” fraction prepared by the method of Gray and Whittaker (E. G. Gray and V. P. Whittaker (1962) J. Anat. 76, 79-88) is used in each case. For the NA uptake, these vesicular particles are isolated from the hypothalamus of male rat brains.
(§3) A detailed description of the method will be found in the literature (M. Ch. Frink, H. H. Hennies, W. Englberger, M. Haurand and B. Wilffert (1996) Arzneim.-Forsch./Drug Res. 46 (III), 11, 1029-1036).

Experiment [1] deals with T2, Noradrenaline (NA) reuptake (Rattus norvegicus, UniProt Q63380).
T2 construct: synaptosomes are freshly isolated from areas of rat brain; from tissue; host or cells: rat hypothalamus synaptosomes (P2 fraction)
T2 sequence (Q63380 1-617): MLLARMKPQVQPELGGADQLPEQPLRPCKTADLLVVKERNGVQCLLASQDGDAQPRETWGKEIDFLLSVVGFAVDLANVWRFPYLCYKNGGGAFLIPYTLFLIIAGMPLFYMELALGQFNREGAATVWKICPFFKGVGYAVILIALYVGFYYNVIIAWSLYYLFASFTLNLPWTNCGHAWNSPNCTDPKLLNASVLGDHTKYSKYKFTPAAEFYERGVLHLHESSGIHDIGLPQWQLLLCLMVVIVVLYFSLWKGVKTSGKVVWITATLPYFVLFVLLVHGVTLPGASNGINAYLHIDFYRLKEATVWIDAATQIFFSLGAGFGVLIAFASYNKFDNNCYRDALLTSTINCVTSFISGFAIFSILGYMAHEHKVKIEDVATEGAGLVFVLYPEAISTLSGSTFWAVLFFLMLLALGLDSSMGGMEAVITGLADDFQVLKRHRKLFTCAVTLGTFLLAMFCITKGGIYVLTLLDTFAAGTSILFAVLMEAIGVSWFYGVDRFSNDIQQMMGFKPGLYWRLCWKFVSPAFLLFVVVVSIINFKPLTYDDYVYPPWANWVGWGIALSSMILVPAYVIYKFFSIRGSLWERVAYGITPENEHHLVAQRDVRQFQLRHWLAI
Briefly: Noradrenaline (NA) reuptake inhibition in rat brain synaptosomes (hypothalamus, P2 fraction). The class given is biochemical. The settings on record: for inhibition at 10 µM: read-out: NA reuptake, % inhibition [10 μM].
Source text: as §1, §2, §3

Setting [2] is: 1 μM test substance, inhibition of specific [3H]-naloxone binding.

human μ-opiate receptor, sequence (P35372 whole entry): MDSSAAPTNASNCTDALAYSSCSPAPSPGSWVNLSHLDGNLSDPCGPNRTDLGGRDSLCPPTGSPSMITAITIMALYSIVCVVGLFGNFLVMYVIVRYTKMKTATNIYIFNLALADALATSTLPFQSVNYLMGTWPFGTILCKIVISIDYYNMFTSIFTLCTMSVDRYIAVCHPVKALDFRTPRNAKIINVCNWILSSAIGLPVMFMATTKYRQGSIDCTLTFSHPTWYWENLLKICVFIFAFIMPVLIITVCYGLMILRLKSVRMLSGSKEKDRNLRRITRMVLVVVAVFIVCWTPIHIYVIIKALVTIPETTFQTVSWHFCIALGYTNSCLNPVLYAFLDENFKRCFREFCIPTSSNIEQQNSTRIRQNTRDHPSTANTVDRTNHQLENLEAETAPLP

As to `CN(C)C(c1ccccc1)C1CCC(C=O)CC1` (stereo not drawn) [compound 28, 4-(Dimethylamino-phenyl-methyl)-cyclohexane-carbaldehyde], at human μ-opiate receptor (setting [2]), the inhibition at 1 µM came to 69%. In addition, the results for the inhibition at 10 µM (on Serotonin (5HT) reuptake; in experiment [1]) were 85% and 84%, respectively.

`CN(C)C(c1ccccc1)C1CCC(CN)CC1` (stereo not drawn) [compound 30, [(4-aminomethyl-cyclohexyl)-phenyl-methyl]-dimethylamine]: the inhibition at 1 µM at human μ-opiate receptor (setting [2]) turned out to be 94%. At human μ-opiate receptor, the Ki turned out to be 0.21 µM. In addition, the inhibition at 10 µM (at Serotonin (5HT) reuptake; in experiment [1]) was 89% each time.

`CN(C)C(c1cccc(F)c1)C1CCC(C=O)CC1` (stereo not drawn) [compound 34, 4-[Dimethylamino-(3-fluorophenyl)-methyl]-cyclohexane-carbaldehyde]: the inhibition at 1 µM on human μ-opiate receptor (setting [2]) amounted to 34%. For the same compound, the inhibition at 10 µM (at Serotonin (5HT) reuptake; in experiment [1]) was 87% each time.

Regarding `CN(C)C(c1cccc(F)c1)C1CCC(CN)CC1` (stereo not drawn) [compound 36, [(4-aminomethyl-cyclohexyl)-(3-fluorophenyl)-methyl]-dimethylamine], the inhibition at 1 µM at human μ-opiate receptor (setting [2]) came to 68%. Besides, the Ki worked out at 0.096 µM at Serotonin (5HT) reuptake and 0.11 µM in experiment [1]. In addition, the values for the inhibition at 10 µM (on Serotonin (5HT) reuptake; in experiment [1]) were 89% and 93%, respectively.

As to `CN(C)C(c1ccc(Cl)cc1)C1CCC(CN)CC1` (stereo not drawn) [compound 39, [(4-aminomethyl-cyclohexyl)-(4-chlorophenyl)-methyl]-dimethylamine], the inhibition at 1 µM at human μ-opiate receptor (setting [2]) stood at 56%. The inhibition at 10 µM on Serotonin (5HT) reuptake came to 87%; in experiment [1], 97%.

As to `CN(C)C(c1cccs1)C1CCC(CN)CC1` (stereo not drawn) [compound 42, [(4-aminomethyl-cyclohexyl)-thiophen-2-yl-methyl]-dimethylamine], the inhibition at 1 µM on human μ-opiate receptor (setting [2]) stood at 80%. In addition, the Ki at human μ-opiate receptor ([3H]-naloxone, human μ-opiate receptor membranes) worked out at 0.24 µM. Besides, the values for the inhibition at 10 µM (at Serotonin (5HT) reuptake; in experiment [1]) were 86% and 83%, respectively.

For the compound `CN(C)C(c1ccccc1)C1CCC(CC=O)CC1` (stereo not drawn) [compound 46, [4-(Dimethylamino-phenyl-methyl)-cyclohexyl]-acetaldehyde], at human μ-opiate receptor (setting [2]), the inhibition at 1 µM stood at 75%. The results for the inhibition at 10 µM (on Serotonin (5HT) reuptake; in experiment [1]) were 92% and 95%, respectively.

`CN(C)C(c1ccccc1)C1CCC(CCN)CC1` (stereo not drawn) [compound 48]: on human μ-opiate receptor (setting [2]), the “μ-Opioid receptor, % inhibition [1 μM]” value worked out at 67%. Also, at Serotonin (5HT) reuptake (10 μM, rat brain synaptosomes), the “Serotonin reuptake, % inhibition [10 μM]” value turned out to be 95%. Also, the “NA reuptake, % inhibition [10 μM]” value in experiment [1] (10 μM, rat brain synaptosomes (hypothalamus)) was 100%.

On to `CN(C)C(c1ccc(F)cc1)C1CCC(CC=O)CC1` (stereo not drawn) [compound 49, {4-[Dimethylamino-(4-fluorophenyl)-methyl]-cyclohexyl}-acetaldehyde], for which, on human μ-opiate receptor (setting [2]), the inhibition at 1 µM stood at 34%. Further, the results for the inhibition at 10 µM (on Serotonin (5HT) reuptake; in experiment [1]) were 93% and 97%, respectively.

Consider `CN(C)C(c1cccc(F)c1)C1CCC(CCN)CC1` (stereo not drawn) [compound 54, 2-{4-[dimethylamino-(3-fluorophenyl)-methyl]-cyclohexyl}-ethylamine], for which, on human μ-opiate receptor (setting [2]), the inhibition at 1 µM turned out to be 62%. In addition, the inhibition at 10 µM is 94% at Serotonin (5HT) reuptake and 102% in experiment [1].

Regarding `CN(C)C(c1ccc(Cl)cc1)C1CCC(CCN)CC1` (stereo not drawn) [compound 66, 2-{4-[dimethylamino-(4-chlorophenyl)-methyl]-cyclohexyl}-ethylamine], at human μ-opiate receptor (setting [2]), the inhibition at 1 µM is 62%. Besides, the inhibition at 10 µM (at Serotonin (5HT) reuptake; in experiment [1]) was 96% throughout.

In the case of `CN(C)C(c1cccs1)C1CCC(CC=O)CC1` (stereo not drawn) [compound 67, {4-[Dimethylamino-thiophen-2-yl-methyl]-cyclohexyl}-acetaldehyde], on human μ-opiate receptor, the Ki stood at 0.2 µM. The inhibition at 10 µM came to 95% on Serotonin (5HT) reuptake and 86% in experiment [1].

For `CN(C)C(c1cccs1)C1CCC(CCN)CC1` (stereo not drawn) [compound 69, 2-[4-(dimethylamino-thiophen-2-yl-methyl)-cyclohexyl]-ethylamine], at human μ-opiate receptor (setting [2]), the inhibition at 1 µM stood at 61%. The results for the inhibition at 10 µM (at Serotonin (5HT) reuptake; in experiment [1]) were 83% and 98%, respectively.

For the compound `CN(C)C(c1ccccc1)C1CCC(NC(=O)Nc2cccc3ccccc23)CC1` (stereo not drawn) [compound 73, 1-(4-((dimethylamino)(phenyl)methyl)cyclohexyl)-3-(naphthalen-1-yl)urea], the inhibition at 1 µM on human μ-opiate receptor (setting [2]) was 96%. In addition, the Ki came out at 0.046 µM at human μ-opiate receptor, 0.061 µM on Serotonin (5HT) reuptake and 0.18 µM in experiment [1]. Also, the inhibition at 10 µM at Serotonin (5HT) reuptake amounted to 90%; in experiment [1] it was 94%.

On to `CN(C)C(c1ccccc1)C1CCC(NC(=O)Nc2ccc(F)cc2F)CC1` (stereo not drawn) [compound 74, 1-(2,4-difluorophenyl)-3-(4-((dimethylamino)(phenyl)methyl)cyclohexyl)urea hydrochloride], for which the inhibition at 1 µM at human μ-opiate receptor (setting [2]) was determined as 88%. Further, the Ki on human μ-opiate receptor came to 0.16 µM; on Serotonin (5HT) reuptake, 0.12 µM; in experiment [1], 0.22 µM. The inhibition at 10 µM is 86% at Serotonin (5HT) reuptake and 93% in experiment [1].

Take `CN(C)C(c1ccccc1)C1CCC(NC(=O)Nc2cccc(C(F)(F)F)c2)CC1` (stereo not drawn) [compound 75, 1-(4-((dimethylamino)(phenyl)methyl)cyclohexyl)-3-(3-(trifluoromethyl)-phenyl)urea hydrochloride]: the inhibition at 1 µM at human μ-opiate receptor (setting [2]) stood at 88%. For the same compound, the values for the Ki (on human μ-opiate receptor; on Serotonin (5HT) reuptake; in experiment [1]) were 0.098 µM, 0.013 µM and 0.55 µM, respectively. For the same compound, the inhibition at 10 µM on Serotonin (5HT) reuptake was 80%; in experiment [1], 88%.

As to `CN(C)C(c1ccccc1)C1CCC(NC(=O)Nc2ccccc2[N+](=O)[O-])CC1` (stereo not drawn) [compound 76, 1-(4-((dimethylamino)(phenyl)methyl)cyclohexyl)-3-(2-nitrophenyl)urea hydrochloride], the inhibition at 1 µM at human μ-opiate receptor (setting [2]) is 61%. Besides, the inhibition at 10 µM at Serotonin (5HT) reuptake amounted to 84%; in experiment [1], 100%.

For the compound `CN(C)C(c1ccccc1)C1CCC(NC(=O)Nc2cccc(Br)c2)CC1` (stereo not drawn) [compound 77, 1-(3-bromophenyl)-3-(4-((dimethylamino)(phenyl)methyl)cyclohexyl)urea hydrochloride], on human μ-opiate receptor (setting [2]), the inhibition at 1 µM stood at 88%. On human μ-opiate receptor, the Ki was found to be 0.078 µM. The results for the inhibition at 10 µM (on Serotonin (5HT) reuptake; in experiment [1]) were 84% and 93%, respectively.

Consider `CN(C)C(c1ccccc1)C1CCC(NC(=O)Nc2ccc(Br)cc2)CC1` (stereo not drawn) [compound 81, 1-(4-bromophenyl)-3-(4-((dimethylamino)(phenyl)methyl)cyclohexyl)urea], for which the inhibition at 1 µM at human μ-opiate receptor (setting [2]) amounted to 95%. For the same compound, the Ki at human μ-opiate receptor came to 0.033 µM. The inhibition at 10 µM (at Serotonin (5HT) reuptake; in experiment [1]) was 97% each time.

Regarding `COc1ccc(NC(=O)NC2CCC(C(c3ccccc3)N(C)C)CC2)cc1` (stereo not drawn) [compound 82, 1-(4-((dimethylamino)(phenyl)methyl)cyclohexyl)-3-(4-methoxyphenyl)urea], the inhibition at 1 µM at human μ-opiate receptor (setting [2]) amounted to 92%. The Ki at human μ-opiate receptor is 0.19 µM; at Serotonin (5HT) reuptake, 0.11 µM; in experiment [1], 0.12 µM. Further, the inhibition at 10 µM (on Serotonin (5HT) reuptake; in experiment [1]) was 98% in each case.

As for `CN(C)C(c1ccccc1)C1CCC(NCCc2c[nH]c3ccccc23)CC1` (stereo not drawn) [compound 83, N-(2-(1H-indol-3-yl)ethyl)-4-((dimethylamino)(phenyl)methyl)-cyclohexanamine hydrochloride], the inhibition at 1 µM at human μ-opiate receptor (setting [2]) was found to be 95%. Further, the Ki on human μ-opiate receptor stood at 0.007 µM. Besides, the inhibition at 10 µM at Serotonin (5HT) reuptake came out at 93%; in experiment [1], 100%.

Take `CN(C)C(c1ccccc1)C1CCC(NCCc2ccccc2)CC1` (stereo not drawn) [compound 84, 4-((dimethylamino)(phenyl)methyl)-N-phenethylcyclohexanamine hydrochloride]: the inhibition at 1 µM at human μ-opiate receptor (setting [2]) was 95%. Also, the Ki at human μ-opiate receptor came to 0.012 µM. Also, the inhibition at 10 µM at Serotonin (5HT) reuptake was determined as 76%; in experiment [1] it was 93%.

As to `CN(C)C(c1ccccc1)C1CCC(NCCCc2ccccc2)CC1` (stereo not drawn) [compound 85, 4-((dimethylamino)(phenyl)methyl)-N-(3-phenylpropyl)cyclohexanamine dihydrochloride], the inhibition at 1 µM at human μ-opiate receptor (setting [2]) worked out at 98%. Moreover, the Ki on human μ-opiate receptor was 0.0028 µM. Further, the results for the inhibition at 10 µM (at Serotonin (5HT) reuptake; in experiment [1]) were 77% and 103%, respectively.

Take `COc1ccc(NC2CCC(C(c3ccccc3)N(C)C)CC2)cc1` (stereo not drawn) [compound 89, N-(4-((dimethylamino)(phenyl)methyl)cyclohexyl)-4-methoxybenzenamine hydrochloride]: the inhibition at 1 µM at human μ-opiate receptor (setting [2]) was determined as 95%. Moreover, on human μ-opiate receptor, the Ki was 0.059 µM. The results for the inhibition at 10 µM (on Serotonin (5HT) reuptake; in experiment [1]) were 73% and 85%, respectively.

As to `COc1ccc(CNC2CCC(C(c3ccccc3)N(C)C)CC2)cc1` (stereo not drawn) [compound 90, 4-((dimethylamino)(phenyl)methyl)-N-(4-methoxybenzyl)cyclohexanamine dihydrochloride], the inhibition at 1 µM on human μ-opiate receptor (setting [2]) was determined as 94%. In addition, the Ki at human μ-opiate receptor stood at 0.045 µM. The results for the inhibition at 10 µM (on Serotonin (5HT) reuptake; in experiment [1]) were 87% and 98%, respectively.

On to `CN(C)C(c1ccccc1)C1CCC(Nc2ccccc2)CC1` (stereo not drawn) [compound 92, N-(4-((dimethylamino)(phenyl)methyl)cyclohexyl)benzenamine hydrochloride], for which, at human μ-opiate receptor (setting [2]), the inhibition at 1 µM is 91%. Further, on human μ-opiate receptor, the Ki amounted to 0.017 µM. Also, the results for the inhibition at 10 µM (on Serotonin (5HT) reuptake; in experiment [1]) were 69% and 75%, respectively.

Source of the values: patent publication US8058475B2, “Substituted cyclohexylmethyl compounds” (Gruenenthal GmbH, priority 2005, dated 2011).
